Measurements published in patent US11890279B2, “Quinolines that modulate SERCA and their use for treating disease” (Neurodon Corporation, priority 2020, dated 2024).

Tests used:
[1] = tested on: liver of ob/ob mice; test: Liver expression of gluconeogenesis and lipogenesis genes in ob/ob mice; type: in vivo, mouse
Procedure: The expression of key genes involved in gluconeogenesis and lipogenesis was measured. RNA was isolated from liver samples of the ob/ob mice and mRNA expression of the indicated genes was quantified by Real-time PCR using iTaq Fast SYBR Green Supermix with ROX (Bio-Rad) in a 7500 Real-Time PCR systems (Applied Biosystems) using mouse specific primers. Gene expression is normalized to 18s. RNA was isolated using Trizol (Invitrogen). cDNA was generated using High Capacity cDNA Reverse Transcription kit (Applied Biosystems). Real-time PCR was performed with iTaq Fast SYBR Green Supermix with ROX (Bio-Rad) in 7500 Real-Time PCR systems (Applied Biosystems) using mouse specific primers. Gene expression was normalized to 18s. Isolated liver tissue was homogenized in RIPA buffer containing protease inhibitors and phosphatase inhibitors (Roche). Protein samples were matched for their protein concentrations and 30 micrograms of each sample were applied to SDS-PASE and transferred onto nitrocellulose membrane. Membranes were then incubated with the corresponding phosphor or total primary antibodies specific for the desired proteins followed by incubation with appropriate secondary antibodies conjugated to horseradish peroxidase (Pierce) and signal intensities were visualized by Chemiluminescence (Pierce). Films from at least four independent experiments were scanned and densities of the immunoreactive bands were evaluated using NIH Image software. GAPDH (Santa Cruz Biotechnology) was used as a loading control.

[2] = Pharmacokinetics in Sprague Dawley rats; type: in vivo, rat; conditions: Sprague Dawley rats
Procedure: Blood was drawn at 5 min, 15 min, 30 min, 1 hr, 2 hrs, 4 hrs, 6 hrs, and 8 hrs into EDTA containing tubes and plasma was harvested by centrifugation. Plasma (25 μL) was treated with acetonitrile (125 μL) containing an internal standard. The sample was then centrifuged for 5 min at 4,000 rpm in a tabletop centrifuge and the filtrate was collected. The filtrate was injected onto a Thermo Betasil C18 HPLC column 5 (50×2.1 mm). Mobile Phase A was water with 0.1% formic acid. Mobile Phase B was acetonitrile with 0.1% formic acid. […] An API Sciex 4000 equipped with a turbo ion spray source was used for all analytical measurements. A positive ion MRM method was developed. Peak areas of the product ion were measured against the peak areas of the internal standard. Data was fit using WinNonLin (Pharsight Corporation, Mountain View, CA).

[3] = tested on: SERCA (SR vesicles); test: Activation of SERCA, increase in Vmax; type: biochemical
[4] = tested on: human islet microtissues; test: Protection of human pancreatic islets under cytokine stress; type: cell-based; conditions: 168 h, compound 5 μM, cytokine cocktail IL1-β, IFN-γ, TNF-α, 7 days, read-out: increase in viability over baseline (total ATP content)
Procedure: Human pancreatic islet microtissues treated with cytokines were used to model the conditions of Type 1 Diabetes in vitro. This study tested the effects of compounds on […] viability in human islets under cytokine stress. The model consisted of human islet microtissues from an HLA-A2 positive donor grown and separated in a 96-well plate (1 microtissue per well). The microtissues were treated for 7 days with a cocktail of cytokines (IL1-β 5 ng/mL, IFN-γ 25 ng/mL, TNF-α 25 ng/mL) and compound (5 μM) or vehicle. There were 6 microtissues treated per compound or vehicle. At day 7, the total ATP content was measured using CellTiter-Glo (Promega).

[5] = Brain barrier penetration in mice; type: in vivo; conditions: mouse, brain/plasma, 10 mg/kg IP, 1 hr after dosing, read-out: brain/plasma ratio
Description: The brains of the mice were harvested 1 hr after dosing. The brain/plasma ratio was 2.6.

[6] = tested on: CA1 pyramidal neurons of PS1/APP mice; test: Ca2+ imaging in brain slices of treated PS1/APP mice; type: in vivo, mouse; conditions: 10 mg/kg IP, 4 weeks, caffeine 10 mM, 60 sec
Description: Mouse Model: PS1/APP mice (PS1M146V and APPSWE) (Howlett et al., Brain Res. 2004, 1017, 130-136) were used. Age-matched NTg controls were on the same background strain (C57bl6/J9).
Brain Slice Preparation: Mice were deeply anesthetized with halothane and rapidly decapitated. The brains were extracted rapidly and 300 or 400 μm-thick transverse hippocampal slices were cut with a vibrating microtome into ice-cold oxygenated artificial cerebrospinal fluid (aCSF) with the following composition (in mM): 125 NaCl, 2.5 KCl, 1.25 KH2PO4, 1.2 MgSO4, 2 CaCl2, 10 dextrose, and 25 NaHCO3.
Ca^2+ Imaging: Ca^2+ imaging within individual neurons was performed in brain slice preparations using a custom-made video-rate multiphoton-imaging system based on an upright Olympus BX51 microscope frame. […] Emitted fluorescence light was detected by a wide-field photomultiplier (Electron Tubes) to derive a video signal that was captured and analyzed by Video Savant 5.0 software (IO Industries). […] For clarity, results are expressed as inverse ratios so that increases in [Ca^2+] correspond to increasing ratios. The % change is calculated as [(F/ΔF)−1]×100, where F is the average resting fluorescence at baseline and ΔF is the decrease of fluorescence reflecting Ca release. Differences between drug- and saline-treated groups were assessed using two-way ANOVA and Scheffe post hoc analysis for significance (p<0.05). […]

SMILES | expression of PPARα and PGC1α [1] | mRNA expression of G6PAse and PEPCK [1] | mRNA expression of lipogenic genes (SCD1, DGAT2, FASn, SREBP1c) [1] | CLobs ([2]; listed under oral pharmacokinetic properties) [mL/min/kg] | Cmax ([2]; rat, plasma, oral, 2 mg/kg P.O.) [nM] | AUC(0-t) ([2]; rat, plasma, oral, 2 mg/kg P.O., read-out: AUClast) [µM·h] | Increase in Vmax at 10 μM [3] | viability at 5 µM [4] [%] | Kp at 1 h [5] | ER Ca^2+ signaling (RyR-Ca2+ response to caffeine) [6]
Cc1ccc2cccc(NC(=O)c3ccc(OC(C)C)cc3)c2n1 [Compound A12, 4-Isopropoxy-N-(2-methylquinolin-8-yl)benzamide] | increased | significantly reduced | significantly reduced | 251 | 260 | 0.41 | A′ (A′ represents an increase greater than 50%) | 20 to 50 | 2.6 | restores ER Ca^2+ signaling
Cc1ccc2cccc(NC(=O)c3ccc(N(C)C)cc3)c2n1 [Compound C18, 4-N,N-Dimethylamino-N-(2-methylquinolin-8-yl)benzamide] |  |  |  |  |  |  |  | > 50 |  | 
